Test: Toxicities attributed to Cediranib
Format: in vivo, human

COc1cc2c(Oc3ccc4[nH]c(C)cc4c3F)ncnc2cc1OCCCN1CCCC1 [cediranib, Cediranib]
diarrhea, number of patients (all grades): Thirty-two | Abdominal pain, events (patients) (grade 1 TOX): 5(5) | Acidosis, events (patients) (grade 1 TOX): 1(1) | Alanine aminotransferase increased, events (patients) (grade 1 TOX): 41(22) | Alkaline phosphatase increased, events (patients) (grade 1 TOX): 2(2) | Anal mucositis, events (patients) (grade 1 TOX): 1(1) | Anal pain, events (patients) (grade 1 TOX): 1(1) | Anemia, events (patients) (grade 1 TOX): 2(2) | Anorexia, events (patients) (grade 1 TOX): 8(8) | Aspartate aminotransferase increased, events (patients) (grade 1 TOX): 37(19) | Back pain, events (patients) (grade 1 TOX): 1(1) | Blood bilirubin increased, events (patients) (grade 1 TOX): 13(7) | Bone pain, events (patients) (grade 1 TOX): 1(1) | Cardiac troponin I increased, events (patients) (grade 1 TOX): 1(1) | Cholesterol high, events (patients) (grade 1 TOX): 1(1) | Chronic kidney disease, events (patients) (grade 1 TOX): 1(1) | Constipation, events (patients) (grade 1 TOX): 5(2) | Cough, events (patients) (grade 1 TOX): 1(1) | Creatinine increased, events (patients) (grade 1 TOX): 1(1) | Dehydration, events (patients) (grade 1 TOX): 1(1) | Depression, events (patients) (grade 1 TOX): 1(1) | Diarrhea, events (patients) (grade 1 TOX): 43(30) | Dizziness, events (patients) (grade 1 TOX): 3(3) | Dry mouth, events (patients) (grade 1 TOX): 1(1) | Dry skin, events (patients) (grade 1 TOX): 1(1) | Dyspepsia, events (patients) (grade 1 TOX): 3(3) | Edema face, events (patients) (grade 1 TOX): 1(1) | Edema limbs, events (patients) (grade 1 TOX): 1(1) | Endocrine disorders - Other, specify, events (patients) (grade 1 TOX): 1(1) | Epistaxis, events (patients) (grade 1 TOX): 5(4) | Fatigue, events (patients) (grade 1 TOX): 7(7) | Fecal incontinence, events (patients) (grade 1 TOX): 1(1) | Fever, events (patients) (grade 1 TOX): 1(1) | GGT increased, events (patients) (grade 1 TOX): 1(1) | Gastritis, events (patients) (grade 1 TOX): 1(1) | Gastrointestinal disorders - Other, specify, events (patients) (grade 1 TOX): 1(1) | Headache, events (patients) (grade 1 TOX): 5(4) | Hematuria, events (patients) (grade 1 TOX): 5(3) | Hemoglobin increased, events (patients) (grade 1 TOX): 6(2) | Hoarseness, events (patients) (grade 1 TOX): 1(1) | Hypercalcemia, events (patients) (grade 1 TOX): 3(2) | Hyperglycemia, events (patients) (grade 1 TOX): 7(6) | Hyperkalemia, events (patients) (grade 1 TOX): 2(2) | Hypermagnesemia, events (patients) (grade 1 TOX): 7(5) | Hypernatremia, events (patients) (grade 1 TOX): 5(4) | Hypertension, events (patients) (grade 1 TOX): 19(13) | Hyperthyroidism, events (patients) (grade 1 TOX): 2(2) | Hypoalbuminemia, events (patients) (grade 1 TOX): 20(13) | Hypocalcemia, events (patients) (grade 1 TOX): 16(8) | Hypoglycemia, events (patients) (grade 1 TOX): 2(2) | Hypokalemia, events (patients) (grade 1 TOX): 14(11) | Hypomagnesemia, events (patients) (grade 1 TOX): 6(4) | Hyponatremia, events (patients) (grade 1 TOX): 9(5) | Hypophosphatemia, events (patients) (grade 1 TOX): 10(8) | Hypothyroidism, events (patients) (grade 1 TOX): 10(10) | INR increased, events (patients) (grade 1 TOX): 1(1) | Investigations - Other, specify, events (patients) (grade 1 TOX): 2(2) | Joint effusion, events (patients) (grade 1 TOX): 1(1) | Leukoencephalopathy, events (patients) (grade 1 TOX): 1(1) | Lymphocyte count decreased, events (patients) (grade 1 TOX): 11(8) | Malaise, events (patients) (grade 1 TOX): 2(1) | Mucositis oral, events (patients) (grade 1 TOX): 1(1) | Myalgia, events (patients) (grade 1 TOX): 1(1) | Nausea, events (patients) (grade 1 TOX): 15(10) | Neutrophil count decreased, events (patients) (grade 1 TOX): 11(8) | Non-cardiac chest pain, events (patients) (grade 1 TOX): 1(1) | Oral pain, events (patients) (grade 1 TOX): 2(2) | Pain in extremity, events (patients) (grade 1 TOX): 3(3) | Palmar-plantar erythrodysesthesia syndrome, events (patients) (grade 1 TOX): 4(4) | Platelet count decreased, events (patients) (grade 1 TOX): 22(17) | Proteinuria, events (patients) (grade 1 TOX): 20(13) | Rash acneiform, events (patients) (grade 1 TOX): 2(2) | Rash maculo-papular, events (patients) (grade 1 TOX): 5(5) | Rectal pain, events (patients) (grade 1 TOX): 1(1) | Renal and urinary disorders - Other, specify, events (patients) (grade 1 TOX): 1(1) | Serum amylase increased, events (patients) (grade 1 TOX): 1(1) | Skin and subcutaneous tissue disorders - Other, specify, events (patients) (grade 1 TOX): 1(1) | Stomach pain, events (patients) (grade 1 TOX): 2(2) | Urinary frequency, events (patients) (grade 1 TOX): 1(1) | Urinary retention, events (patients) (grade 1 TOX): 1(1) | Vascular disorders - Other, specify, events (patients) (grade 1 TOX): 2(2) | Voice alteration, events (patients) (grade 1 TOX): 2(2) | Vomiting, events (patients) (grade 1 TOX): 23(12) | Weight loss, events (patients) (grade 1 TOX): 1(1) | White blood cell decreased, events (patients) (grade 1 TOX): 13(11) | Abdominal pain, events (patients) (grade 2 TOX): 5(5) | Alanine aminotransferase increased, events (patients) (grade 2 TOX): 17(9) | Anorexia, events (patients) (grade 2 TOX): 5(5) | Arthralgia, events (patients) (grade 2 TOX): 1(1) | Aspartate aminotransferase increased, events (patients) (grade 2 TOX): 4(4) | Back pain, events (patients) (grade 2 TOX): 1(1) | Bone pain, events (patients) (grade 2 TOX): 1(1) | Constipation, events (patients) (grade 2 TOX): 1(1) | Dehydration, events (patients) (grade 2 TOX): 1(1) | Diarrhea, events (patients) (grade 2 TOX): 16(11) | Dizziness, events (patients) (grade 2 TOX): 2(1) | Fatigue, events (patients) (grade 2 TOX): 9(9) | Flushing, events (patients) (grade 2 TOX): 3(1) | Gastrointestinal disorders - Other, specify, events (patients) (grade 2 TOX): 1(1) | Headache, events (patients) (grade 2 TOX): 3(3) | Hyperglycemia, events (patients) (grade 2 TOX): 2(2) | Hypertension, events (patients) (grade 2 TOX): 28(28) | Hypoalbuminemia, events (patients) (grade 2 TOX): 6(4) | Hypocalcemia, events (patients) (grade 2 TOX): 1(1) | Hypoglycemia, events (patients) (grade 2 TOX): 1(1) | Hypomagnesemia, events (patients) (grade 2 TOX): 1(1) | Hypophosphatemia, events (patients) (grade 2 TOX): 4(2) | Hypothyroidism, events (patients) (grade 2 TOX): 10(10) | Hypoxia, events (patients) (grade 2 TOX): 1(1) | Intracranial hemorrhage, events (patients) (grade 2 TOX): 4(4) | Lipase increased, events (patients) (grade 2 TOX): 1(1) | Lymphocyte count decreased, events (patients) (grade 2 TOX): 7(5) | Mucositis oral, events (patients) (grade 2 TOX): 2(2) | Myalgia, events (patients) (grade 2 TOX): 1(1) | Nausea, events (patients) (grade 2 TOX): 3(3) | Neutrophil count decreased, events (patients) (grade 2 TOX): 7(4) | Pain in extremity, events (patients) (grade 2 TOX): 1(1) | Pain, events (patients) (grade 2 TOX): 1(1) | Palmar-plantar erythrodysesthesia syndrome, events (patients) (grade 2 TOX): 10(7) | Pericardial effusion, events (patients) (grade 2 TOX): 1(1) | Peripheral motor neuropathy, events (patients) (grade 2 TOX): 1(1) | Platelet count decreased, events (patients) (grade 2 TOX): 3(3) | Pleural effusion, events (patients) (grade 2 TOX): 1(1) | Proteinuria, events (patients) (grade 2 TOX): 13(12) | Respiratory, thoracic and mediastinal disorders - Other, specify, events (patients) (grade 2 TOX): 1(1) | Reversible posterior leukoencephalopathy syndrome, events (patients) (grade 2 TOX): 1(1) | Seizure, events (patients) (grade 2 TOX): 1(1) | Skin ulceration, events (patients) (grade 2 TOX): 1(1) | Vomiting, events (patients) (grade 2 TOX): 3(3) | Weight loss, events (patients) (grade 2 TOX): 1(1) | White blood cell decreased, events (patients) (grade 2 TOX): 4(2) | Alanine aminotransferase increased, events (patients) (grade 3 TOX): 6(5) | Anemia, events (patients) (grade 3 TOX): 1(1) | Aspartate aminotransferase increased, events (patients) (grade 3 TOX): 1(1) | Blurred vision, events (patients) (grade 3 TOX): 1(1) | Capillary leak syndrome, events (patients) (grade 3 TOX): 1(1) | Chest wall pain, events (patients) (grade 3 TOX): 1(1) | Confusion, events (patients) (grade 3 TOX): 1(1) | Dehydration, events (patients) (grade 3 TOX): 2(2) | Depressed level of consciousness, events (patients) (grade 3 TOX): 1(1) | Diarrhea, events (patients) (grade 3 TOX): 2(2) | Dysphasia, events (patients) (grade 3 TOX): 1(1) | Enterocolitis, events (patients) (grade 3 TOX): 1(1)
